Values after ≈ are worked out from the molar mass of the structure shown. Values joined by “and” are separate entries in the source; they are usually repeats but may differ in a detail not shown here. Equal values may be shown once. Read-outs that look alike come from different tables or passages of the source.
How the values were obtained:
PvPI4K = PvPI4K (Plasmodium vivax, UniProt A5KB26); experiment: biochemical; settings: purified recombinant PvPI4K, 10 μM ATP, ADP-Glo; mean of N ≥ 2; read-out: PvPI4K IC50 ± SD
[1] = tested on: P. falciparum NF54 strain; experiment: Antiplasmodial activity, parasite lactate dehydrogenase assay, NF54; type: cell-based, Plasmodium falciparum; settings: parasite lactate dehydrogenase assay over 72 h, read-out: Pf IC50 ± SD NF54
[2] = tested on: multidrug-resistant strain, K1; experiment: Antiplasmodial activity, parasite lactate dehydrogenase assay, K1; type: cell-based, Plasmodium falciparum; settings: Plasmodium falciparum, K1, 72 h, parasite lactate dehydrogenase assay over 72 h; read-out: Pf IC50 ± SD K1
[3] = tested on: Chinese Hamster Ovary (CHO) cell line; experiment: cells; type: cell-based; settings: Cricetulus griseus, CHO, read-out: CHO IC50
Dd2 = experiment: microbe, parasite or virus in culture; type: cell-based; settings: Plasmodium falciparum, DD2, 72 h, read-out: Dd2 IC50 ± SD
Dd2_PI4K_CNV = experiment: microbe, parasite or virus in culture; type: cell-based; settings: Plasmodium falciparum, 72 h, read-out: Dd2_PI4K_CNV IC50
β-hematin (βH) formation = experiment: NP-40 mediated cell-free β-hematin assay; settings: read-out: β-hematin IC50
[4] = Solubility, miniaturized shake flask method
hERG channels = target: T1, hERG channels (Homo sapiens, UniProt Q12809); experiment: hERG inhibition, QPatch automated patch clamp assay; type: cell-based; settings: CHO cells stably expressing the hERG channels
T1 construct: expressed in transfected cells; host or cells: CHO cells

LogD shake-flask = type: physicochemical; settings: n-octanol/phosphate buffer (1:1), phosphate buffer (pH 7.4) / n-octanol
pKa of piperidine N = type: physicochemical
[5] = tested on: P. falciparum male gametes; experiment: microbe, parasite or virus in culture; settings: Plasmodium falciparum, 48 h, read-out: inhibition of exflagellation
[6] = tested on: P. falciparum PI4K conditional knockdown line; experiment: microbe, parasite or virus in culture; type: cell-based, Plasmodium falciparum; settings: for IC50: Plasmodium falciparum
cytochrome P450 2C9 = cytochrome P450 2C9 (Homo sapiens, UniProt P11712); experiment: Cytochrome P450 inhibition, 2C9; type: in vitro ADME
cytochrome P450 3A4 = cytochrome P450 3A4 (Homo sapiens, UniProt P08684); experiment: Cytochrome P450 inhibition, 3A4; type: in vitro ADME
cytochrome P450 2C19 = cytochrome P450 2C19 (Homo sapiens, UniProt P33261); experiment: Cytochrome P450 inhibition, 2C19; type: in vitro ADME
cytochrome P450 2D6 = cytochrome P450 2D6 (Homo sapiens, UniProt P10635); experiment: Cytochrome P450 inhibition, 2D6; type: in vitro ADME
From the text: Table 10 In Vitro and In Vivo Pharmacokinetic Parameters ^a | column: 14

[7] = Plasma protein binding, mouse; type: in vitro ADME; settings: read-out: PPB fu, mouse
[8] = In vitro microsomal stability, human; type: in vitro ADME; settings: pooled human liver microsomes, pH 7.4, read-out: microsomal CLint, app human
[9] = In vitro microsomal stability, rat; type: in vitro ADME; settings: rat liver microsomes, pH 7.4, read-out: microsomal CLint, app rat
[10] = In vitro microsomal stability, mouse; type: in vitro ADME; settings: mouse liver microsomes, pH 7.4, read-out: microsomal CLint, app mouse
[11] = Mouse pharmacokinetic studies; settings: male, BalbC
P. falciparum = experiment: In vitro resistance selection under sustained drug pressure; type: cell-based, Plasmodium falciparum; settings: sustained drug pressure at 3 × IC90 for 60 days in vitro (data not shown)
HuPI3Kα = HuPI3Kα (Homo sapiens, UniProt P42336); experiment: Human kinase inhibition, HuPI3Kα; settings: read-out: HuPI3Kα, IC50
HuPI4Kβ = HuPI4Kβ (Homo sapiens, UniProt Q9UBF8); experiment: Human kinase inhibition, HuPI4Kβ; settings: read-out: HuPI4Kβ, IC50
HuMINK1 = HuMINK1 (Homo sapiens, UniProt Q8N4C8); experiment: Human kinase inhibition, HuMINK1; settings: read-out: HuMINK1, IC50
HuMAP4K4 = HuMAP4K4 (Homo sapiens, UniProt O95819); experiment: Human kinase inhibition, HuMAP4K4; settings: read-out: HuMAP4K4, IC50
[12] = Plasmodium falciparum, NF54, 72 h
[13] = cell-free NP-40 detergent-mediated assay, n = 2

PvPI4K, sequence (A5KB26 entry or part of it): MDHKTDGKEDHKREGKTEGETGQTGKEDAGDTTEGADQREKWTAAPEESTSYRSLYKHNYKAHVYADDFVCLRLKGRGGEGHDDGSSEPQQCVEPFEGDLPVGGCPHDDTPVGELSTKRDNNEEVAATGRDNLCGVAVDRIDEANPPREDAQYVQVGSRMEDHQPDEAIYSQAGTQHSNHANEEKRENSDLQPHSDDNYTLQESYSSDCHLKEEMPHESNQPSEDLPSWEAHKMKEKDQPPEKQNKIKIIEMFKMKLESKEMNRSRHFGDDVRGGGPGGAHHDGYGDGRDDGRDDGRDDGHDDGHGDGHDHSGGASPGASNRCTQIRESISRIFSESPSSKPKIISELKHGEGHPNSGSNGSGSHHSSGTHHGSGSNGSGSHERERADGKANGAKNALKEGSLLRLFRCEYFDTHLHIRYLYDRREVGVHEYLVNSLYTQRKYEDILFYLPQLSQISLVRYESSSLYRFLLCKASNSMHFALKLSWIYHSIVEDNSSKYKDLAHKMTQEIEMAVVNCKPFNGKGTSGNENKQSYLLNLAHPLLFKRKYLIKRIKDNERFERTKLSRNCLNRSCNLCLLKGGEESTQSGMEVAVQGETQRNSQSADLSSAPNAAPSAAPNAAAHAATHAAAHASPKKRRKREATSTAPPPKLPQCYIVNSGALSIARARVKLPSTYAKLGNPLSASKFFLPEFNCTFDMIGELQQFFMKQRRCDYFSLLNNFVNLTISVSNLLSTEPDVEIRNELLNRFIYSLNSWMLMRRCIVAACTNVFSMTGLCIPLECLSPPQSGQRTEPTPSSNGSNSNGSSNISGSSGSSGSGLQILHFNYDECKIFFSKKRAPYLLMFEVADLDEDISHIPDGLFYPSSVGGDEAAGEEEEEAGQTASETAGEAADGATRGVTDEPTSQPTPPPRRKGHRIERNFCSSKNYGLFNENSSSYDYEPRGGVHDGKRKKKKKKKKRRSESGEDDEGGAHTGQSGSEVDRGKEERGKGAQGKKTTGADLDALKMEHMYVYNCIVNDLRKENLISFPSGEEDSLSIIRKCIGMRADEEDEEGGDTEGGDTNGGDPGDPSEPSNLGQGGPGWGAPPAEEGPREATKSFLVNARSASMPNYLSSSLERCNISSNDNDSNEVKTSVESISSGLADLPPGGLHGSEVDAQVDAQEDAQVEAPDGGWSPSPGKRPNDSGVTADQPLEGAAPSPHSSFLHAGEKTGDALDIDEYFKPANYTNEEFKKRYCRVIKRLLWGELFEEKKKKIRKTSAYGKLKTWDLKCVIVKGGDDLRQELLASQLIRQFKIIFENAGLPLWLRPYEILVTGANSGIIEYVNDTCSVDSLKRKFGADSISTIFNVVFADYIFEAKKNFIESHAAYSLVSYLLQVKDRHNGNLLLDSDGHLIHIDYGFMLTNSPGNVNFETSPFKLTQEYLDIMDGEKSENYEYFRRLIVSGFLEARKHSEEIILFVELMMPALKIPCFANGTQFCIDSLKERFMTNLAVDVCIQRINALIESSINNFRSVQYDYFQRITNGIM
cytochrome P450 2C19, sequence (P33261 whole entry): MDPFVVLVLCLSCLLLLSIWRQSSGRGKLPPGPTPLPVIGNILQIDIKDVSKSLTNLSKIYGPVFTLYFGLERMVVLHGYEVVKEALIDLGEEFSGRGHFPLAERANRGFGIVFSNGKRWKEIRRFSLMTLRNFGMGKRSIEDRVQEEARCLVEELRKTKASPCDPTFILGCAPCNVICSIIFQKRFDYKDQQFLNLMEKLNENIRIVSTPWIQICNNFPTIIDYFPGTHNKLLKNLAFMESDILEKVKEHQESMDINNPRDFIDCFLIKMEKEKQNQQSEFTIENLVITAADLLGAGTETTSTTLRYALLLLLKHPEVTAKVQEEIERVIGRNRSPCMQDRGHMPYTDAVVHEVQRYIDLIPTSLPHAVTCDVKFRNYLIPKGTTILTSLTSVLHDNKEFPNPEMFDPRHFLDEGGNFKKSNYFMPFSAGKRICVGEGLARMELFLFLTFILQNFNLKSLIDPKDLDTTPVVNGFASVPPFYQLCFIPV
cytochrome P450 2D6, sequence (P10635 whole entry): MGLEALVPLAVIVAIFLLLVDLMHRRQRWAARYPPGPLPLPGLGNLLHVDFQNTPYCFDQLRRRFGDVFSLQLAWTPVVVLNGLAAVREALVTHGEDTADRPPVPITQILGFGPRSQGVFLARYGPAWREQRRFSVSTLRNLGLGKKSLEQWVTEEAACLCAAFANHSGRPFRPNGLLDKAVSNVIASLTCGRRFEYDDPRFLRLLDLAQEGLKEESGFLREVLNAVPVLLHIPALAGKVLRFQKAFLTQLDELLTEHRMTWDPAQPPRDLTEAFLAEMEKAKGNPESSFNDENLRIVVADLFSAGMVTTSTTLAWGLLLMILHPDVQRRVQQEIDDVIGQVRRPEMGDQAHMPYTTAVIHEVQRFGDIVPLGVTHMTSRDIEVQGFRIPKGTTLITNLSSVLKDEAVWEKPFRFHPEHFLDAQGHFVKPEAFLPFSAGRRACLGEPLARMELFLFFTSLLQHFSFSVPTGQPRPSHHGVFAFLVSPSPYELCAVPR
HuPI3Kα, sequence (P42336 whole entry): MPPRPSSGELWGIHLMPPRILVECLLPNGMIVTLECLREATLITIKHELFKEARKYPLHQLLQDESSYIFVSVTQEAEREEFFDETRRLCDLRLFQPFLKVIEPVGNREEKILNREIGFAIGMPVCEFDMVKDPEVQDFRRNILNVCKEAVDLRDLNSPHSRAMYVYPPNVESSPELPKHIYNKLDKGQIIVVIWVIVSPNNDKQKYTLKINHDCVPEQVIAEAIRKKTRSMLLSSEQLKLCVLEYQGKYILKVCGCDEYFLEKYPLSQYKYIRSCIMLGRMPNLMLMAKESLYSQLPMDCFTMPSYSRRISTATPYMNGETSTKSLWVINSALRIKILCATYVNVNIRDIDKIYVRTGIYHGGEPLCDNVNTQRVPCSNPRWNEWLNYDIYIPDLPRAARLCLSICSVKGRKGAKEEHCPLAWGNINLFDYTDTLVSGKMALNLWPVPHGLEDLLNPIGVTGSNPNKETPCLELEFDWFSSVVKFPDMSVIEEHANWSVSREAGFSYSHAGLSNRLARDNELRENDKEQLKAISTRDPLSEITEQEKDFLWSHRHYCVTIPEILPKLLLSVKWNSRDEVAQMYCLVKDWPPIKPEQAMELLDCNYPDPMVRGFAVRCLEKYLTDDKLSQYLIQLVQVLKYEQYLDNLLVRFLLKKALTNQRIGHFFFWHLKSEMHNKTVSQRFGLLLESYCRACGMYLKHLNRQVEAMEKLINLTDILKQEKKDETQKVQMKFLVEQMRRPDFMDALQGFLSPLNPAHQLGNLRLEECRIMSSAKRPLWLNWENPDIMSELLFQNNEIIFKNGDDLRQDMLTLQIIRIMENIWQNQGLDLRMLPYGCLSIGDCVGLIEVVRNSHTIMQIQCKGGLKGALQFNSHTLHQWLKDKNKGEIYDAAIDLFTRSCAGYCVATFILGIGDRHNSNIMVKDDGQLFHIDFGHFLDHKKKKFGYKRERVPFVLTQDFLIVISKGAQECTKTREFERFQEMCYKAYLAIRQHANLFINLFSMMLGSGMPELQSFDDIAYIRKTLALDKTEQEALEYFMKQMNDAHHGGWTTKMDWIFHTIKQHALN
HuPI3Kα, sequence (P27986 whole entry partner): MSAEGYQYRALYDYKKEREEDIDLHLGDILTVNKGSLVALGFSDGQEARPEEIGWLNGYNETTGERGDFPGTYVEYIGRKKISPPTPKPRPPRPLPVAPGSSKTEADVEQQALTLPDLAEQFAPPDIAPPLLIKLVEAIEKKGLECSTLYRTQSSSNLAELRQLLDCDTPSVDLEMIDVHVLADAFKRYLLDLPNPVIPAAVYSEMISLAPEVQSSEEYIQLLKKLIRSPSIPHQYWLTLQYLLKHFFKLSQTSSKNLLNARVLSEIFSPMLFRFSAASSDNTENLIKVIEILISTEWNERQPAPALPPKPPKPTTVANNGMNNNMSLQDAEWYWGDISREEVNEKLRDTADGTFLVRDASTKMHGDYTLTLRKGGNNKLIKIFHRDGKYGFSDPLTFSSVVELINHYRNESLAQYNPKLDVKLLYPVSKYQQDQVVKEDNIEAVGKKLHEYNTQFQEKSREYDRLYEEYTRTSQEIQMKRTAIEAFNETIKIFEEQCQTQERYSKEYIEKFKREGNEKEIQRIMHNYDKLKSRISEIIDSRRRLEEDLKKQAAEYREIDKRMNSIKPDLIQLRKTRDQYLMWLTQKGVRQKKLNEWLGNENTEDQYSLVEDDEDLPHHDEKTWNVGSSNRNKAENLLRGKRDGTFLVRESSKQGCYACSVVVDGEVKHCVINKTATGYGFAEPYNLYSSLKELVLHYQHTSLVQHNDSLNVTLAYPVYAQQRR
cytochrome P450 2C9, sequence (P11712 whole entry): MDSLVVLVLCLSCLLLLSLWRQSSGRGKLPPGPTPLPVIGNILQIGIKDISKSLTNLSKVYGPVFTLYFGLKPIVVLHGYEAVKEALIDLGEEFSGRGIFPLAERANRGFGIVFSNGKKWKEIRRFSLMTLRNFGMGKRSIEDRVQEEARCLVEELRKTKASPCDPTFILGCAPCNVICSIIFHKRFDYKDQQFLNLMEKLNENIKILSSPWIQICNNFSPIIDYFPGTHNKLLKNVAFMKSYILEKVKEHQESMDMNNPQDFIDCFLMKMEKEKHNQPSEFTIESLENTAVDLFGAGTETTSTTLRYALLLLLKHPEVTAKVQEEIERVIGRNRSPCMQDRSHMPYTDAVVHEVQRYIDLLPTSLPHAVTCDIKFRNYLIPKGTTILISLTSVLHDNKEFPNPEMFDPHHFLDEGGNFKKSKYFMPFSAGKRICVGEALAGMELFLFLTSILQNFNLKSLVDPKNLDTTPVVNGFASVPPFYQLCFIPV

SMILES: O[C@H]1CNCC[C@@H]1Nc1ccnc2ccc(-c3ccc(C(F)(F)F)nc3)nc12 (racemic) [Compound 28, rac-trans-4-[[6-[6-(Trifluoromethyl)pyridin-3-yl]-1,5-naphthyridin-4-yl]amino]piperidin-3-ol]
- IC50 (PvPI4K): 967 ± 163 nM
- IC50 [1, 12]: 168 ± 55 nM
- IC50 [2]: 624 ± 76 nM
- IC50 ([3]; MTT assay over 48h): > 50000 nM
- IC50 (Dd2): 212 ± 127 nM
- IC50 (Dd2_PI4K_CNV): 182 ± 44 nM
- IC50 (β-hematin (βH) formation; [13]): 95000 ± 16000 nM
- solubility at 20 h ([4]; aqueous solution): 200 µM (≈ 77.9 µg/mL)

SMILES: O[C@H]1CNCC[C@H]1Nc1ccnc2ccc(-c3ccc(C(F)(F)F)nc3)nc12 (relative stereo) [Compound 27, rac-cis-4-[[6-[6-(Trifluoromethyl)pyridin-3-yl]-1,5-naphthyridin-4-yl]amino]piperidin-3-ol]
- IC50 (PvPI4K): 370 ± 175 nM
- IC50 [1, 12]: 140 nM
- IC50 [1]: 130 ± 24 nM
- IC50 [2]: 334 ± 147 nM
- IC50 ([3]; MTT assay over 48h): 33000 nM
- IC50 (Dd2): 437 ± 71 nM
- IC50 (Dd2_PI4K_CNV): 381 ± 17 nM
- IC50 (hERG channels): 24500 nM
- logD at 3 h (LogD shake-flask): 1.02
- pKa (pKa of piperidine N): 8.99
- IC50 (β-hematin (βH) formation; [13]): 140000 ± 7000 nM
- solubility at 20 h ([4]; aqueous solution): 200 µM (≈ 77.9 µg/mL)

SMILES: NS(=O)(=O)c1cccc(-c2ccc3nccc(-c4ccnc(C(F)(F)F)c4)c3n2)c1 [Compound 1]
- IC50 ([3]; 48 h): 6000 nM
- inhibition at 2 µM [5]: 60%
- IC50 (β-hematin (βH) formation): > 500000 nM

SMILES: N[C@H]1CCN(c2ccnc3ccc(-c4ccc(C(F)(F)F)nc4)nc23)C1 [Compound 14, (3S)-1-[6-[6-(Trifluoromethyl)pyridin-3-yl]-1,5-naphthyridin-4-yl]pyrrolidin-3-amine]
- IC50 (PvPI4K): 1210 ± 220 nM
- IC50 [1, 12]: 31 ± 3 nM
- IC50 [2]: 87 ± 30 nM
- IC50 ([3]; MTT assay over 48h): 12000 nM
- IC50 (Dd2): 46 ± 20 nM
- IC50 (Dd2_PI4K_CNV): 41 ± 10 nM
- IC50 ([6]; 72 h, read-out: ABS IC50 for PfPI4K cKD, N=1, +aTc, experiment N=1, +aTc (500 nM, control conditions), 72 hours): 23 nM
- IC50 ([6]; 72 h, read-out: ABS IC50 for PfPI4K cKD, N=1, no aTc, experiment N=1, no aTc (PI4K knockdown), 72 hours): 25 nM
- IC50 ([6]; 72 h, read-out: ABS IC50 for PfPI4K cKD, N=2, +aTc, experiment N=2, +aTc (500 nM, control conditions), 72 hours): 37 nM
- IC50 ([6]; 72 h, read-out: ABS IC50 for PfPI4K cKD, N=2, no aTc, experiment N=2, no aTc (PI4K knockdown), 72 hours): 38 nM
- IC50 ([6]; 72 h, read-out: ABS IC50 for PfPI4K cKD, N=3, +aTc, experiment N=3, +aTc (500 nM, control conditions), 72 hours): 21 nM
- IC50 ([6]; 72 h, read-out: ABS IC50 for PfPI4K cKD, N=3, no aTc, experiment N=3, no aTc (PI4K knockdown), 72 hours): 20 nM
- IC50 ([6]; read-out: ABS IC50 for PfPI4K cKD, Mean + SD, +aTc, mean of N=3, +aTc (control conditions)): 27 ± 9 nM
- IC50 ([6]; read-out: ABS IC50 for PfPI4K cKD, Mean + SD, no aTc, mean of N=3, no aTc (PI4K knockdown)): 28 ± 9 nM
- ABS IC50 for PfPI4K cKD, N=1, fold shift ([6]; experiment N=1, +aTc vs no aTc): 0.90 fold
- ABS IC50 for PfPI4K cKD, N=2, fold shift ([6]; experiment N=2, +aTc vs no aTc): 0.98 fold
- ABS IC50 for PfPI4K cKD, N=3, fold shift ([6]; experiment N=3, +aTc vs no aTc): 1.04 fold
- ABS IC50 for PfPI4K cKD, mean fold shift (fold decrease in IC50 on knockdown) ([6]; mean, +aTc vs no aTc): 0.97 fold
- IC50 (cytochrome P450 2C9): > 20000 nM
- IC50 (cytochrome P450 3A4): > 20000 nM
- IC50 (cytochrome P450 2C19): 18000 nM
- IC50 (cytochrome P450 2D6): > 20000 nM
- fraction unbound at 5 h, 5 µM [7]: 0.08
- CLint scaled at 1 µM [8]: < 13 mL/min/kg
- CLint scaled at 1 µM [9]: < 21 mL/min/kg
- CLint scaled at 1 µM [10]: < 46 mL/min/kg
- in vivo mouse CLu [11]: 135 mL/min/kg
- Vd at 24 h ([11]; in vivo, iv, 2 mg/kg): 4.4 L/kg
- half-life at 24 h ([11]; in vivo, iv, 2 mg/kg): 6.3 h
- bioavailability at 24 h ([11]; in vivo, po): 27%
- in vivo mouse CLb ([11]; iv, 2 mg/kg): 10.80 mL/min/kg
- Attempts to raise mutants (P. falciparum): not successful
- IC50 (HuPI3Kα): 5200 nM
- IC50 (HuPI4Kβ): > 10000 nM
- IC50 (HuMINK1): > 10000 nM
- IC50 (HuMAP4K4): > 10000 nM
- IC50 (β-hematin (βH) formation; [13]): 33000 nM and < 60000 nM
- solubility at 20 h ([4]; PBS, pH 6.5): 200 µM (≈ 71.9 µg/mL)
- solubility at 20 h ([4]; aqueous solution): 200 µM (≈ 71.9 µg/mL)

— publication PMC11247499, “2,8-Disubstituted-1,5-naphthyridines as Dual Inhibitors of Plasmodium falciparum Phosphatidylinositol-4-kinase and Hemozoin Formation with In Vivo Efficacy” (Journal of Medicinal Chemistry, 2024)
